This note sets out measurements from ChEMBL document CHEMBL1151335, “Clavaric acid: a triterpenoid inhibitor of farnesyl-protein transferase from Clavariadelphus truncatus” (J Nat Prod, 1998).

For series [1], the species on record is Homo sapiens. Put plainly: (§1) Inhibition of human recombinant protein farnesyl transferase expressed in Escherichia coli.
Series [2] in a line: as §1.
For series [3], the target named is T1, Squalene synthase (Homo sapiens) (UniProt P37268).
T1 sequence (whole entry): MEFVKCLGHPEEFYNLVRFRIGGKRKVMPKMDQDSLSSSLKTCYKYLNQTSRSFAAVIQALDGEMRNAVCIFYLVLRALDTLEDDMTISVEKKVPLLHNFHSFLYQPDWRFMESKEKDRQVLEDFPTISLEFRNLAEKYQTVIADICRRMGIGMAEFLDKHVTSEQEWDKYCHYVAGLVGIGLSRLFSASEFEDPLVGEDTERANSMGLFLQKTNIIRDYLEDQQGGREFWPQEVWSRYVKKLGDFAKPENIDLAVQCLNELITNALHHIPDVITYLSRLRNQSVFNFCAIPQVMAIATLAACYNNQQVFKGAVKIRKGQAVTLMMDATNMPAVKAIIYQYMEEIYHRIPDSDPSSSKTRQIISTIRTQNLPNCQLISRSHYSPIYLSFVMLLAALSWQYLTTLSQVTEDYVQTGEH
Put plainly: Inhibition of squalene synthase.

Series [4] in a line: Inhibition of geranylgeranyl protein transferase.
Series [5] deals with NIH3T3. Put plainly: Inhibition of Ras expression in mouse NIH/3T3 cells at 50 uM. It counts as functional, cell-based.
Series [6] in a line: Cytotoxicity against mouse NIH/3T3 cells at 50 uM. As to conditions: nih3t3, 50 µM. In kind it is cell-based.

Structures are written as SMILES. Active and inactive are the calls of the source. The calls are words filed in the database; no cut-off is given here.

Take `COC(=O)C[C@](C)(O)CC(=O)O[C@@H]1C[C@]2(C)C3=C(CC[C@H]2C(C)(C)C1=O)[C@]1(C)CC[C@H]([C@H](C)CCC(O)C(C)(C)O)[C@@]1(C)CC3` (some centres not stated): the result in series [1] was inactive.

Turning to `C[C@H](CCC(O)C(C)(C)O)[C@H]1CC[C@@]2(C)C3=C(CC[C@]12C)[C@@]1(C)C[C@@H](OC(=O)CC(C)(O)CC(=O)O)C(=O)C(C)(C)[C@@H]1CC3` (some centres not stated) [CLAVARIC ACID], in series [2], the IC50 was found to be 1.3 µM. Further, the result in series [3] and in series [4] was inactive. In addition, the outcome in series [5] was Active. In addition, in series [6], the Activity entry is recorded as “Non-toxic”.

Consider `C[C@H](CCC(O)C(C)(C)O)[C@H]1CC[C@@]2(C)C3=C(CC[C@]12C)[C@@]1(C)C[C@@H](O)C(=O)C(C)(C)[C@@H]1CC3` (some centres not stated) [CLAVARINONE], for which the IC50 in series [2] came out at 10.5 µM.

As usually defined, the IC50 is the concentration that gives 50% inhibition.
